The test system of one test is SOCS3. Conditions: reported (refs 56, 57, 49); cited from earlier work.
Another test concerns laser-induced CNV mice. Conditions: previously reported (ref 49), vs control treatment; cited from earlier work.
Another test concerns OIR mice. Kind of test: Oxygen-induced retinopathy (OIR) mouse model, NV and VO areas on retinal flat mounts. The format is in vivo. As to the method: OIR was carried out using neonatal mice as described previously (Smith et al., 1994). Briefly, mouse pups with nursing female mice were exposed to 75% oxygen from postnatal day (P) 7 to 12, then returned to room air until to P17 for phenotypical analysis and gene expression at indicated time. For phenotypical analysis, the retinas were collected at P17, dissected, and stained with fluorescent dye conjugated-Griffonia Simplicifolia Isolectin IB4 (Invitrogen) overnight and flat-mounted. The avascular (vasoobliteration, VO) and pathological neovascularization (NV) areas were quantified (Connor et al., 2009) by masked researchers using Image J (National Institutes of Health, imagej.nih.gov/ij/) and Adobe Photoshop (Adobe Systems). The exclusion criteria for the OIR mouse model was used as described previously. Mice with bodyweight less than 5 grams at P17 were excluded from the study (Stahl et al., 2010).
OIR was carried out using neonatal mice as described previously^81. Briefly, mouse pups with nursing female mice were exposed to 75% oxygen from postnatal day (P) 7 to 12, then returned to room air until P17 for phenotypical analysis and gene expression analysis at indicated times. For phenotypical analysis, the retinas were collected at P17, dissected, and stained with fluorescent dye conjugated with Griffonia Simplicifolia Isolectin IB4 (Invitrogen) overnight and flat-mounted. The avascular (vaso-obliteration, VO) and pathological NV areas were quantified^82 by masked researchers using Image J (National Institutes of Health) and fully automated deep learning segmentation method^83. The exclusion criteria for the OIR mouse model were used as previously described^84.
SOCS3 agonist, naringenin (400 mg/kg/day, gavage) 49, and control reagents were administrated to C57BL/6J OIR mice from P12 to P16. SOCS3 peptidomimetic and negative control (NC) peptides were synthesized and purified as described 74. […] The identity and purity of main products were evaluated by LC-MS and purified compounds were lyophilized and stored at −20° C. until use. […]

SMILES strings stand for the structures.

As for `O=C1C[C@@H](c2ccc(O)cc2)Oc2cc(O)cc(O)c21` [naringenin], the “SOCS3 expression, in words” value in the test on SOCS3 was “induces SOCS3 expression”. In the test on laser-induced CNV mice, the “effect on laser-induced CNV, in words” value is recorded as “significantly suppresses laser-induced CNV”. Also, in the test with OIR mice (OIR retinas at P17, vs control treatment), the “effect on retinal neovascularization (NV), in words” value is listed as “significantly reduced NV”. In the test on OIR mice (OIR retinas, vs control treatment), the “effect on vaso-obliteration (VO) / blood vessel loss, in words” value was “without influencing VO”. Further, the “reduction of NV at P17 compared to controls” value in the test on OIR mice (naringenin treatment from P12 to P16, 400 mg/kg/day, C57BL/6J OIR mice) is recorded as “about 50%”.

The values are drawn from patent US20250289879A1, “THERAPEUTIC MODULATION OF GENES IN MYELOID LINEAGE CELLS AND USES THEREOF IN OPHTHALMOLOGY” (The Children's Medical Center Corporation, priority 2022, published 2025).
